From patent publication US10323022B2, “Pyrrolidinyl urea, pyrrolidinyl thiourea and pyrrolidinyl guanidine compounds as TrkA kinase inhibitors” (Array BioPharma Inc., priority 2011, dated 2019)

Target: TrkA (Homo sapiens (Human), UniProt P04629)
Experiment: TrkA Omnia Assay
Format: biochemical
Details: averaged IC50; 20 nM enzyme, 500 μM ATP, 10 μM peptide substrate
Summary of the method: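 Recombinant TrkA (20 nM) preincubated 10 min at ambient temperature with compound, then Omnia Tyr Peptide #4 (10 μM) and ATP (500 μM) added in 25 mM MOPS pH 7.5, 5 mM MgCl2, 0.005% Triton X-100. Fluorescence (ex 360/em 485 nm) followed continuously for 70 min; IC50 from initial rates by 4- or 5-parameter logistic fit.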

Sequence of TrkA (P04629 33-796): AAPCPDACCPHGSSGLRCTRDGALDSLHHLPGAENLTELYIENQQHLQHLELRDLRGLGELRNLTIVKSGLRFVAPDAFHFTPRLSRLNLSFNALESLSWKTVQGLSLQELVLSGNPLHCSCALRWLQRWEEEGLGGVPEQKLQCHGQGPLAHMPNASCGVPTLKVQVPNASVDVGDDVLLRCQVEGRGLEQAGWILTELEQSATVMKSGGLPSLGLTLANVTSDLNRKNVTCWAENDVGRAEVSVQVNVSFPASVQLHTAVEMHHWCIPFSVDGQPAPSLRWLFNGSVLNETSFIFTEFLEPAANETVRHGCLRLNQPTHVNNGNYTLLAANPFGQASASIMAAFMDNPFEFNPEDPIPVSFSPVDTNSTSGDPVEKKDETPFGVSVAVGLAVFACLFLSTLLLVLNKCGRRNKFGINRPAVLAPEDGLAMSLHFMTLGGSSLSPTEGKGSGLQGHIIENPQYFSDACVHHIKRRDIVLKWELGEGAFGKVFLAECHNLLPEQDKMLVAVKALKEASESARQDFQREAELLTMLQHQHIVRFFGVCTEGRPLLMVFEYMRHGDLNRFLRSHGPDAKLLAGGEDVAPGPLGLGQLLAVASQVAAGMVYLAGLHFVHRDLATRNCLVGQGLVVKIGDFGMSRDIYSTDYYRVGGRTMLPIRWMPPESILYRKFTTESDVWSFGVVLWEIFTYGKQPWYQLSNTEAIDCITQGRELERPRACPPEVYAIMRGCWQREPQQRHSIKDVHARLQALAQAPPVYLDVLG

Row | SMILES | IC50
1 | COC[C@@H](N1C[C@@H](NC(=O)Nc2c(Cl)c(-c3cnn(C)c3)nn2-c2ccccc2)[C@H](c2ccc(F)c(F)c2)C1)C(F)(F)F [Example 278, 1-(4-chloro-1′-methyl-1-phenyl-1H, 1′H-3,4′-bipyrazol-5-yl)-3-((3S,4R)-4-(3,4-difluorophenyl)-1-((R)-1,1,1-trifluoro-3-methoxypropan-2-yl)pyrrolidin-3-yl)urea] | < 100 nM
2 | COC[C@@H](N1C[C@@H](NC(=O)Nc2c(C)c(OC[C@H](C)O)nn2-c2ccccc2)[C@H](c2ccc(F)c(F)c2)C1)C(F)(F)F [Example 279, 1-((3S,4R)-4-(3,4-difluorophenyl)-1-((R)-1,1,1-trifluoro-3-methoxypropan-2-yl)pyrrolidin-3-yl)-3-(3-((S)-2-hydroxypropoxy)-4-methyl-1-phenyl-1H-pyrazol-5-yl)urea] | 100 to 1000 nM
3 | COCCCc1nn(-c2ccccc2)c(NC(=O)N[C@@H]2CN(CCOC)C[C@H]2c2cc(F)cc(F)c2)c1C [Example 281, 1-((3S,4R)-4-(3,5-difluorophenyl)-1-(2-methoxyethyl)pyrrolidin-3-yl)-3-(3-(3-methoxypropyl)-4-methyl-1-phenyl-1H-pyrazol-5-yl)urea] | < 100 nM
4 | COCCN1C[C@@H](NC(=O)Nc2c(C)c(C(F)(F)CO)nn2-c2ccccc2)[C@H](c2ccc(F)c(F)c2)C1 [Example 282, 1-(3-(1,1-difluoro-2-hydroxyethyl)-4-methyl-1-phenyl-1H-pyrazol-5-yl)-3-((3S,4R)-4-(3,4-difluorophenyl)-1-(2-methoxyethyl)pyrrolidin-3-yl)urea] | < 100 nM
5 | COCCN1C[C@@H](NC(=O)Nc2c(C)c(C(F)(F)CO)nn2-c2ccccc2)[C@H](c2cc(F)cc(F)c2)C1 [Example 283, 1-(3-(1,1-difluoro-2-hydroxyethyl)-4-methyl-1-phenyl-1H-pyrazol-5-yl)-3-((3S,4R)-4-(3,5-difluorophenyl)-1-(2-methoxyethyl)pyrrolidin-3-yl)urea] | < 100 nM
6 | COCCN1C[C@@H](NC(=O)Nc2c(C)c(C(F)(F)CO)nn2-c2ccccc2)[C@H](c2ccc(F)cc2)C1 [Example 284, 1-(3-(1,1-difluoro-2-hydroxyethyl)-4-methyl-1-phenyl-1H-pyrazol-5-yl)-3-((3S,4R)-4-(4-fluorophenyl)-1-(2-methoxyethyl)pyrrolidin-3-yl)urea] | < 100 nM
7 | COCCN1C[C@@H](NC(=O)Nc2cc(C(F)(F)CO)nn2-c2ccccc2)[C@H](c2ccc(F)c(F)c2)C1 [Example 285, 1-(3-(1,1-difluoro-2-hydroxyethyl)-1-phenyl-1H-pyrazol-5-yl)-3-((3S,4R)-4-(3,4-difluorophenyl)-1-(2-methoxyethyl)pyrrolidin-3-yl)urea] | < 100 nM
8 | COCCN1C[C@@H](NC(=O)Nc2c(C)c(CCO)nn2-c2ccccc2)[C@H](c2cc(F)cc(F)c2)C1 [Example 286, 1-((3S,4R)-4-(3,5-difluorophenyl)-1-(2-methoxyethyl)pyrrolidin-3-yl)-3-(3-(2-hydroxyethyl)-4-methyl-1-phenyl-1H-pyrazol-5-yl)urea] | < 100 nM
9 | COCCN1C[C@@H](NC(=O)Nc2c(C)c(CCO)nn2-c2ccccc2)[C@H](c2ccc(F)cc2)C1 [Example 287, 1-((3S,4R)-4-(4-fluorophenyl)-1-(2-methoxyethyl)pyrrolidin-3-yl)-3-(3-(2-hydroxyethyl)-4-methyl-1-phenyl-1H-pyrazol-5-yl)urea] | < 100 nM
10 | COCCN1C[C@@H](NC(=O)Nc2c(C)c(CC(C)(C)O)nn2-c2ccccc2)[C@H](c2ccc(F)c(F)c2)C1 [Example 288, 1-((3S,4R)-4-(3,4-difluorophenyl)-1-(2-methoxyethyl)pyrrolidin-3-yl)-3-(3-(2-hydroxy-2-methylpropyl)-4-methyl-1-phenyl-1H-pyrazol-5-yl)urea] | < 100 nM
11 | COCCN1C[C@@H](NC(=O)Nc2c(C)c(C[C@H](C)O)nn2-c2ccccc2)[C@H](c2ccc(F)c(F)c2)C1 [Example 289, 1-((3S,4R)-4-(3,4-difluorophenyl)-1-(2-methoxyethyl)pyrrolidin-3-yl)-3-(3-((S)-2-hydroxypropyl)-4-methyl-1-phenyl-1H-pyrazol-5-yl)urea] | < 100 nM
12 | COCCN1C[C@@H](NC(=O)Nc2c(C)c(C[C@@H](C)O)nn2-c2ccccc2)[C@H](c2ccc(F)c(F)c2)C1 [Example 290, 1-((3S,4R)-4-(3,4-difluorophenyl)-1-(2-methoxyethyl)pyrrolidin-3-yl)-3-(3-((R)-2-hydroxypropyl)-4-methyl-1-phenyl-1H-pyrazol-5-yl)urea] | < 100 nM
13 | CCOC(=O)c1nn(-c2ccccc2)c(NC(=O)N[C@@H]2CN(CCOC)C[C@H]2c2ccc(F)c(F)c2)c1C [Example 291, ethyl 5-(3-((3S,4R)-4-(3,4-difluorophenyl)-1-(2-methoxyethyl)pyrrolidin-3-yl)ureido)-4-methyl-1-phenyl-1H-pyrazole-3-carboxylate] | < 100 nM
14 | CNC(=O)c1nn(-c2ccccc2)c(NC(=O)N[C@@H]2CN(CCOC)C[C@H]2c2ccc(F)cc2)c1C [Example 292, 5-(3-((3S,4R)-4-(4-fluorophenyl)-1-(2-methoxyethyl)pyrrolidin-3-yl)ureido)-N,4-dimethyl-1-phenyl-1H-pyrazole-3-carboxamide] | < 100 nM
15 | COCCN1C[C@@H](NC(=O)Nc2c(C)c(-c3nnc(C)o3)nn2-c2ccccc2)[C@H](c2ccc(F)c(F)c2)C1 [Example 297, 1-((3S,4R)-4-(3,4-difluorophenyl)-1-(2-methoxyethyl)pyrrolidin-3-yl)-3-(4-methyl-3-(5-methyl-1,3,4-oxadiazol-2-yl)-1-phenyl-1H-pyrazol-5-yl)urea] | < 100 nM
16 | COCCN1C[C@@H](NC(=O)Nc2c(C)c(-c3nc(C)no3)nn2-c2ccccc2)[C@H](c2ccc(F)c(F)c2)C1 [Example 298, 1-((3S,4R)-4-(3,4-difluorophenyl)-1-(2-methoxyethyl)pyrrolidin-3-yl)-3-(4-methyl-3-(3-methyl-1,2,4-oxadiazol-5-yl)-1-phenyl-1H-pyrazol-5-yl)urea] | < 100 nM
17 | COCCN1C[C@@H](NC(=O)Nc2c(C)c(-c3nc(C(F)(F)F)no3)nn2-c2ccccc2)[C@H](c2ccc(F)c(F)c2)C1 [Example 299, 1-((3S,4R)-4-(3,4-difluorophenyl)-1-(2-methoxyethyl)pyrrolidin-3-yl)-3-(4-methyl-1-phenyl-3-(3-(trifluoromethyl)-1,2,4-oxadiazol-5-yl)-1H-pyrazol-5-yl)urea] | < 100 nM
18 | COCCN1C[C@@H](NC(=O)Nc2c(C)c(-c3nc(C(F)(F)F)no3)nn2-c2ccccc2)[C@H](c2ccc(F)cc2)C1 [Example 300, 1-((3S,4R)-4-(4-fluorophenyl)-1-(2-methoxyethyl)pyrrolidin-3-yl)-3-(4-methyl-1-phenyl-3-(3-(trifluoromethyl)-1,2,4-oxadiazol-5-yl)-1H-pyrazol-5-yl)urea] | < 100 nM
19 | COCCN1C[C@@H](NC(=O)Nc2c(C)c(-c3cc(C)n(C)n3)nn2-c2ccccc2)[C@H](c2ccc(F)c(F)c2)C1 [Example 305, 1-((3S,4R)-4-(3,4-difluorophenyl)-1-(2-methoxyethyl)pyrrolidin-3-yl)-3-(1′,4,5′-trimethyl-1-phenyl-1H,1′H-[3,3′-bipyrazol]-5-yl)urea] | < 100 nM
20 | COCCN1C[C@@H](NC(=O)Nc2c(C)c(-c3cc(C)n(C)n3)nn2-c2ccccc2)[C@H](c2cc(F)cc(F)c2)C1 [Example 306, 1-((3S,4R)-4-(3,5-difluorophenyl)-1-(2-methoxyethyl)pyrrolidin-3-yl)-3-(1′,4,5′-trimethyl-1-phenyl-1H,1′H-[3,3′-bipyrazol]-5-yl)urea] | < 100 nM
21 | COCCN1C[C@@H](NC(=O)Nc2c(C)c(-c3cc(C)n(C)n3)nn2-c2ccccc2)[C@H](c2ccc(F)cc2)C1 [Example 307, 1-((3S,4R)-4-(4-fluorophenyl)-1-(2-methoxyethyl)pyrrolidin-3-yl)-3-(1′,4,5′-trimethyl-1-phenyl-1H,1′H-[3,3′-bipyrazol]-5-yl)urea] | < 100 nM
22 | COCCN1C[C@@H](NC(=O)Nc2c(C)c(-c3cc(C)nn3C)nn2-c2ccccc2)[C@H](c2ccc(F)c(F)c2)C1 [Example 308, 1-((3S,4R)-4-(3,4-difluorophenyl)-1-(2-methoxyethyl)pyrrolidin-3-yl)-3-(2′,4,5′-trimethyl-1-phenyl-1H,2′H-[3,3′-bipyrazol]-5-yl)urea] | < 100 nM
23 | COCCN1C[C@@H](NC(=O)Nc2c(C3CC3)c(-c3cnn(C)c3)nn2-c2ccccc2)[C@H](c2ccc(F)c(F)c2)C1 [Example 309, 1-(4-cyclopropyl-1′-methyl-1-phenyl-1H,1′H-[3,4′-bipyrazol]-5-yl)-3-((3S,4R)-4-(3,4-difluorophenyl)-1-(2-methoxyethyl)pyrrolidin-3-yl)urea] | < 100 nM
24 | COCCN1C[C@@H](NC(=O)Nc2c(C(C)C)c(-c3cnn(C)c3)nn2-c2ccccc2)[C@H](c2ccc(F)c(F)c2)C1 [Example 310, 1-((3S,4R)-4-(3,4-difluorophenyl)-1-(2-methoxyethyl)pyrrolidin-3-yl)-3-(4-isopropyl-1′-methyl-1-phenyl-1H,1′H-[3,4′-bipyrazol]-5-yl)urea] | 100 to 1000 nM
25 | CCc1c(-c2cnn(C)c2)nn(-c2ccccc2)c1NC(=O)N[C@@H]1CN(CCOC)C[C@H]1c1ccc(F)c(F)c1 [Example 311, 1-((3S,4R)-4-(3,4-difluorophenyl)-1-(2-methoxyethyl)pyrrolidin-3-yl)-3-(4-ethyl-1′-methyl-1-phenyl-1H,1′H-[3,4′-bipyrazol]-5-yl)urea] | < 100 nM
26 | COCCN1C[C@@H](NC(=O)Nc2c(C)c(-c3cnn(C)c3)nn2-c2ccc(F)cc2)[C@H](c2ccc(F)c(F)c2)C1 [Example 312, 1-((3S,4R)-4-(3,4-difluorophenyl)-1-(2-methoxyethyl)pyrrolidin-3-yl)-3-(1-(4-fluorophenyl)-1′,4-dimethyl-1H,1′H-[3,4′-bipyrazol]-5-yl)urea] | < 100 nM
